Consider four molecules from PMC7515946, “Targeting of Perforin Inhibitor into the Brain Parenchyma Via a Prodrug Approach Can Decrease Oxidative Stress and Neuroinflammation and Improve Cell Survival” (Molecular Neurobiology, 2020).

Non-standard residues stand in square brackets, D forms with d. No end group written: not given here. Sta = CC(C)C[C@H](N)[C@@H](O)CC(=O)O

As a reminder, the IC50 is the point on the concentration scale where inhibition reaches its midpoint.

Assay [1] concerns the target T1, purified human β-site amyloid precursor protein (APP) cleaving enzyme 1 (BACE1) (Homo sapiens, UniProt P56817).
T1 construct: purchased AnaSpec, Inc. (Fremont, CA, USA), SensoLyte 520 BACE1 Assay kit
The assay can be described thus: BACE1 FRET inhibition assay. The format is biochemical. As to conditions: 0.25 μM, 30 min. The source says:
A fluorometric assay was used to screen the inhibitory effect of the studied compounds on purified human β-site amyloid precursor protein (APP) cleaving enzyme 1 (BACE1) using a fluorescence resonance energy transfer (FRET) peptide technique (SensoLyte© 520 BACE1 Assay kit, AnaSpec, Inc., Fremont, CA, USA) according to the manufacturer’s protocol. […] The sequence of the FRET peptide has been derived from the β-secretase cleavage site of β-amyloid precursor protein (APP) with Swedish mutation, which enhances β-secretase to process APP resulting in an early onset of AD. Thus, active β-secretase cleaved the FRET substrate into two separate fragments resulting in the release of HiLyte™ Fluor 488 fluorescence that was measured by the Envision plate reader (EnVision, Perkin Elmer, Waltham, MA, USA) at λex 490 nm and λem 520 nm.

The subject of assay [2] is MCF-7 human breast adenocarcinoma cells. The assay can be described thus: Cell viability of MCF-7 cells with cisplatin co-treatment (resazurin). The following applies: 100 μM, 72 h incubation. The format is cell-based.
The target in the next assay is T2, LAT1 (Mus musculus, UniProt Q9Z127).
T2 construct: endogenous in cells; host or cells: mouse primary astrocytes (C57BL/6JOlaHsd), cortex and hippocampi
T2 sequence (Q9Z127 whole entry): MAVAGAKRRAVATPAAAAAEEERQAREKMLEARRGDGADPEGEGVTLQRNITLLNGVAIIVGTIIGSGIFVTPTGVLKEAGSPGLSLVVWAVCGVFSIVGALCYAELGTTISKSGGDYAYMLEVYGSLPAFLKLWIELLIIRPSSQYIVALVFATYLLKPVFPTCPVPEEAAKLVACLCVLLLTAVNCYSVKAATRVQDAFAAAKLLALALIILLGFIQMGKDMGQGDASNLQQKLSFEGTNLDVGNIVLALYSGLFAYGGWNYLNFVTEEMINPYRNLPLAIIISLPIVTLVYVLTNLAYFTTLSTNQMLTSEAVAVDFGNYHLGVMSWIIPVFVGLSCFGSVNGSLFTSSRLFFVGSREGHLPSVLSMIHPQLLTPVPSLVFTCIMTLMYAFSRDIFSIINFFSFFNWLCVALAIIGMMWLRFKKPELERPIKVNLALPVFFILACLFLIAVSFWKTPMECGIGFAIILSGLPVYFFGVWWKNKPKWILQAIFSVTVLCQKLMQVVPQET
T2 sequence (P10852 whole entry partner): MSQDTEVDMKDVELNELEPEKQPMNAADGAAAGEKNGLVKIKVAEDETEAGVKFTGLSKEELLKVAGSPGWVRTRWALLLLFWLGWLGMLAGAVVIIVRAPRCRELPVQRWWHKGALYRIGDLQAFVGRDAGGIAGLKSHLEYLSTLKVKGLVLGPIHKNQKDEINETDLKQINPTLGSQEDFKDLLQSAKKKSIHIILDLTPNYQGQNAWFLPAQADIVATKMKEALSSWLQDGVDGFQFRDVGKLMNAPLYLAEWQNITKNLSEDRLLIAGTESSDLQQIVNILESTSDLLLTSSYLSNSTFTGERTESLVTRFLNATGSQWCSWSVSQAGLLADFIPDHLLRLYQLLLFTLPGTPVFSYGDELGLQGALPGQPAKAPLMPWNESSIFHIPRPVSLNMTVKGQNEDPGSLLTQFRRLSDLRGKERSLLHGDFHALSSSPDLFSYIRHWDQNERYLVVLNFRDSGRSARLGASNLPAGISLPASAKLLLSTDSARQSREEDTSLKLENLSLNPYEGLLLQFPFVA
The assay can be described thus: Ability to bind to LAT1: inhibition of [14C]-L-leucine uptake in astrocytes. The format is cell-based. The following applies: mouse primary astrocytes, 0.76 μM [14C]-L-leucine, 5 min, 37 °C. The protocol: For the transporter-binding studies, the astrocytes were seeded on 24-well plates with a density of 10 × 10^4 cells/well 3 days before the experiments. After removal of the culture medium, the cells were carefully washed with pre-warmed HBSS (Hank’s balanced salt solution) containing choline chloride (125 mM), KCl (4.8 mM), MgSO4 (1.2 mM), KH2PO4 (1.2 mM), CaCl2 (1.3 mM), glucose (5.6 mM), and HEPES (25 mM) adjusted to pH 7.4 with 1 M NaOH. The cells were pre-incubated with 500 μL of pre-warmed HBSS at 37 °C for 5 min before the experiments. To study the ability of studied compounds to inhibit the uptake of a known LAT1 substrate, the cells were incubated at 37 °C for 5 min with an uptake buffer (HBSS, 250 μL) containing 0.76 μM (0.25 mCi/mL or […]) of [^14C]-L-leucine (PerkinElmer, Waltham, MA, USA) and 0.1–1000 μM of studied compound (or HBSS as blank). After incubation, the uptake was stopped by adding 500 μL of ice-cold HBSS, and the cells were washed two times with ice-cold HBSS (2 × 500 μL). The cells were then lysed with 500 μL of NaOH (0.1 M) for 60 min and the lysate was mixed with 3.5 mL of Emulsifier-Safe cocktail (Ultima Gold, PerkinElmer, Waltham, MA, USA). The radioactivity in the cells was measured by liquid scintillation counting (MicroBeta^2 counter, PerkinElmer Waltham, MA, USA). Half of the maximum inhibitory concentration (IC50) values were calculated by nonlinear regression analysis (fitting the curve to log (concentration) vs. remaining normalized viability).

In the next assay the test system is caspase-3/-7. The assay can be described thus: Caspase-3/-7 in brain of LPS-induced neuroinflammation mice. The format is in vivo, mouse. As to conditions: LPS 250 μg/kg i.p. for 3 days, relative to control. How it is done:
Adult male C57BL/6JOlaHsd mice (Jackson Laboratories, Bar Harbor, ME, USA) were supplied by Envigo (Venray, Netherlands). Mice were housed in stainless steel cages on a 12-h light (07:00–19:00) and 12-h dark (19:00–07:00) cycle at an ambient temperature of 22 ± 1 °C with a relative humidity of 50–60%. All experiments were carried out during the light phase. Tap water and food pellets (Lactamin R36; Lactamin AB, Södertälje, Sweden) were available ad libitum. Neuroinflammation was induced by the treatment with LPS 250 μg/kg i.p once per day for 3 consequent days followed by decapitation on the 4th day. The animals were allocated to one of four treatment groups (n = 6 per group): (1) LPS-treated mice, (2) mice treated with LPS and the studied compound (30 μmol/kg; i.v.) for 3 days and 120 min before the decapitation on the 4th day (preventative efficacy), (3) mice treated with LPS for 3 days and with the studied compound (30 μmol/kg; i.v.) only for the last 2 days, and (4) control mice treated with 0.9% NaCl solution i.p. once per day for 3 days. After decapitation, mouse blood and brain samples were collected. […] The plasma layer was centrifuged again at 12,000 × g to remove the platelets. Plasma was stored at − 80 °C until analysis. The brains were snap-frozen in liquid nitrogen and stored at − 80 °C until analysis.
The effects of the compounds on the enzyme activity of caspase-3 and caspase-7 were evaluated from the snap-frozen mouse brain. Pieces of tissues (n = 3) were homogenized in 50 mM Tris–HCl (pH 7.4) 1:10 (w/v) with a bead mill homogenizer. […] The enzyme activity was measured with an Apo-ONE Homogenous Caspase-3/7 Assay kit (Promega Corporation, Madison, WI, USA) according to the manufacturer’s instruction. The assay was performed on 96-well plates, each sample having 3 replicates. Each of the sample wells contained 100 μL of the previously collected supernatant and 100 μL of the prepared Apo-ONE reagent. The blank measurement was carried out with the homogenization buffer and Apo-ONE reagent. Once all the samples and reagents were pipetted in the wells, the plate was carefully shaken for 30 s and left for incubation in dark at room temperature. The fluorescence was measured after the incubation with an EnVision 2104 Multilabel Reader (PerkinElmer, Waltham, MA, USA), with λex 499 nm and λem 521 nm. The measurement was repeated on multiple time points between 0.5 and 24 h.

In assay [3] the test system is prostaglandin E2 (PGE2) production. As to the kind of experiment: Brain PGE2 production in LPS-induced mice. The following applies: LPS 250 μg/kg per day for 3 days; control 5.72 ± 1.83. Type of assay: in vivo, mouse. How it is done: Adult male C57BL/6JOlaHsd mice (Jackson Laboratories, Bar Harbor, ME, USA) were supplied by Envigo (Venray, Netherlands). Mice were housed in stainless steel cages on a 12-h light (07:00–19:00) and 12-h dark (19:00–07:00) cycle at an ambient temperature of 22 ± 1 °C with a relative humidity of 50–60%. All experiments were carried out during the light phase. Tap water and food pellets (Lactamin R36; Lactamin AB, Södertälje, Sweden) were available ad libitum. Neuroinflammation was induced by the treatment with LPS 250 μg/kg i.p once per day for 3 consequent days followed by decapitation on the 4th day. […]
The effects of the studied compounds to inhibit PGE2 production in the mouse brain were evaluated after LPS-induction as curative and preventative treatments. […] The data were acquired using the Agilent MassHunter Workstation software (version B.06.00) and processed with the Quantitative Analysis (B.07.00) software. The lower limit of quantification (LLOQ) for PGE2 was 1 nM.

T1 sequence (P56817 22-501 limits assumed): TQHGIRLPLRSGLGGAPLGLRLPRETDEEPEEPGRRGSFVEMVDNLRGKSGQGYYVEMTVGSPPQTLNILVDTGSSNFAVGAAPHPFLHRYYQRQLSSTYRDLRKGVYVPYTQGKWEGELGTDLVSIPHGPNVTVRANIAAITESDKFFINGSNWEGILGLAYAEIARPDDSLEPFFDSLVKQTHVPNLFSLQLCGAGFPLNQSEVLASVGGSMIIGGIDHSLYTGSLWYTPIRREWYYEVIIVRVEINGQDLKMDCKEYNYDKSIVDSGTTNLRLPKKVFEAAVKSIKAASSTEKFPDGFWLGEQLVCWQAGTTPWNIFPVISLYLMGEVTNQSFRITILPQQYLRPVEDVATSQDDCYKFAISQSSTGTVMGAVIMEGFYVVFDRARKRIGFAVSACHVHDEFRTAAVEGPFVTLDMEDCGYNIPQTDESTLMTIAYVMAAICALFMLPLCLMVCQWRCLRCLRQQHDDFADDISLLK

With “KTEEISEVN-Sta-VAEF-NH2 (KTEEISEVN[Sta]VAEF-NH2; N-terminus assumed; SMILES CC[C@H](C)[C@H](NC(=O)[C@H](CCC(=O)O)NC(=O)[C@H](CCC(=O)O)NC(=O)[C@@H](NC(=O)[C@@H](N)CCCCN)[C@@H](C)O)C(=O)N[C@@H](CO)C(=O)N[C@@H](CCC(=O)O)C(=O)N[C@H](C(=O)N[C@@H](CC(N)=O)C(=O)N[C@@H](CC(C)C)[C@@H](O)CC(=O)N[C@H](C(=O)N[C@@H](C)C(=O)N[C@@H](CCC(=O)O)C(=O)N[C@@H](Cc1ccccc1)C(N)=O)C(C)C)C(C)C) [BACE1 inhibitor, reference compound]”, in assay [1], the “Inhibition of BACE1 activity” value was “ca. 86%”.
`N.N.[Cl][Pt][Cl]` [cisplatin, reference compound]: the “Inhibition of MCF-7 cell growth” value in assay [2] was 51%.
As for `CNC(=O)COc1ccc(-c2c(C#N)c(NC(=O)c3cccc(C[C@H](N)C(=O)O)c3)n3c(nc4ccccc43)c2C#N)cc1` [LAT1 inhibitor, KMH-233, reference compound], the IC50 against LAT1 was found to be 14.4 ± 1.2 µM; at LAT1 (listed as LAT1-inhibitor), 14 µM.
Consider lipopolysaccharide [LPS], for which the “Brain caspase-3/-7 levels, LPS alone” value in the assay with caspase-3/-7 worked out at 137%. The “Brain PGE2 production, LPS alone” value in assay [3] is listed as 16.56 ± 2.45 nmol of PGE2/mg tissue.
